This passage reports IC50 results from patent US12570666B2, “Furoindazole derivatives” (Bayer Aktiengesellschaft, priority 2019, dated 2026).

SMILES strings stand for the structures.

The target in the assay is T1, human GPR84 receptor (Homo sapiens, UniProt Q9NQS5).
T1 construct: frozen aliquots prepared by acCELLerate; host or cells: CHO-K1
The experiment in a line: cAMP HTRF assay for identification of cellular GPR84 antagonists. It counts as cell-based. The settings on record: CHO-K1 cells stably expressing human GPR84; Forskolin + agonist 6-OAU (EC80); average or median values. The method in brief:
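IC50 came from 4-parameter fits over 20 μM–0.07 nM (11 points, duplicate), normalized between DMSO (0%) and agonist-free (100% inhibition) wells. Readout: cAMP-d2/Eu-cryptate HTRF in hGPR84 CHO-K1 cells given forskolin plus agonist, compound preincubated 30 min at room temperature.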

T1 sequence (Q9NQS5 whole entry): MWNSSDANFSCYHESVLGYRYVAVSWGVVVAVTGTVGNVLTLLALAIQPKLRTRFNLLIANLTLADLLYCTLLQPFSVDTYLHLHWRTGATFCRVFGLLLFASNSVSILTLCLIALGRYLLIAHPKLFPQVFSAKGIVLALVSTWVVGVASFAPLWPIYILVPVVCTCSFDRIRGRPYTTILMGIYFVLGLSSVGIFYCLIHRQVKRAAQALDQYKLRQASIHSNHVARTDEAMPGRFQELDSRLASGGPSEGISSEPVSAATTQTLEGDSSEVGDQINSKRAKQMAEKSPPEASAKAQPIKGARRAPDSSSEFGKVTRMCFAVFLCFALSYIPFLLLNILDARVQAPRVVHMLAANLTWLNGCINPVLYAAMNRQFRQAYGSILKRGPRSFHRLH

In the case of `C[C@@H]1Cc2oc(C(=O)NC[C@@H]3CCCO3)c(C(F)(F)F)c2-c2nn(CC3CCN(C(=O)C4(O)CC4)CC3)cc21` (single isomer, unassigned) [Example 293, (4R or 4S)-2-{[1-(1-hydroxycyclopropane-1-carbonyl)piperidin-4-yl]methyl}-4-methyl-N-{[(2S)-oxolan-2-yl]methyl}-8-(trifluoromethyl)-4,5-dihydro-2H-furo[2,3-g]indazole-7-carboxamide], the IC50 was 7 nM.

Consider `Cc1cc(CNC(=O)c2oc3c(c2C)-c2nn(Cc4ccccn4)cc2CC3)no1` [Example 8, 8-methyl-N-[(5-methyl-1,2-oxazol-3-yl)methyl]-2-(pyridin-2-ylmethyl)-4,5-dihydro-2H-furo[2,3-g]indazole-7-carboxamide], for which the IC50 was found to be 210 nM.

In the case of `Cc1c(C(=O)NC[C@@H]2COCCO2)oc2c1-c1nn(C[C@@H]3CN(C)CCO3)cc1CC2` [Example 104, N[(2R)-1,4-dioxan-2-ylmethyl]-8-methyl-2-{[(2S)-4-methylmorpholin-2-yl]methyl}-4,5-dihydro-2H-furo[2,3-g]indazole-7-carboxamide], the IC50 was found to be 180 nM.

As to `Cc1cccc(CNC(=O)c2oc3c(c2C(F)(F)F)-c2nn(C[C@H]4COCCO4)cc2[C@H](C)C3)n1` (single isomer, unassigned) [Example 315, (4R or 4S)-2-{[(2S)-1,4-dioxan-2-yl]methyl}-4-methyl-N-[(6-methylpyridin-2-yl)methyl]-8-(trifluoromethyl)-4,5-dihydro-2H-furo[2,3-g]indazole-7-carboxamide], the IC50 turned out to be 266 nM.

As to `O=C(NC[C@@H]1COCCO1)c1oc2c(c1C(F)(F)F)-c1nn(Cc3ccccn3)cc1CC2` [Example 116, N-[(2R)-1,4-dioxan-2-ylmethyl]-2-(pyridin-2-ylmethyl)-8-(trifluoromethyl)-4,5-dihydro-2H-furo[2,3-g]indazole-7-carboxamide], the IC50 stood at 28 nM.

With `Cn1ccc(CNC(=O)c2oc3c(c2C(F)(F)F)-c2nn(C[C@H]4COCCO4)cc2C2(CCC2)C3)n1` [Example 270, 2′-[(2S)-1,4-dioxan-2-ylmethyl]-N-[(1-methyl-1H-pyrazol-3-yl)methyl]-8′-(trifluormethyl)-2′,5′-dihydrospiro[cyclobutan-1,4′-furo[2,3-g]indazol]-7′-carboxamide], the IC50 turned out to be 192 nM.

Regarding `Cc1c(C(=O)NC[C@@H]2COCCO2)oc2c1-c1nn(CCN3CCN(C(=O)OC(C)(C)C)CC3)cc1CC2` [Example 142, tert-butyl 4-[2-(7-{[(2R)-1,4-dioxan-2-ylmethyl]carbamoyl}-8-methyl-4,5-dihydro-2H-furo[2,3-g]indazol-2-yl)ethyl]piperazine-1-carboxylate], the IC50 was found to be 670 nM.

In the case of `Cc1c(C(=O)NCC2(C)CCCO2)oc2c1-c1nn(Cc3ccccn3)cc1CC2` (racemic) [Example 173], the IC50 is 7070 nM.

Regarding `C[C@@H]1Cc2oc(C(=O)NC[C@@H]3CCCO3)c(C(F)(F)F)c2-c2nn(CC3CCN(C(=O)C4CC4)CC3)cc21` (single isomer, unassigned) [Example 290, (4R or 4S)-2-{[1-(cyclopropanecarbonyl)piperidin-4-yl]methyl}-4-methyl-N-{[(2S)-oxolan-2-yl]methyl}-8-(trifluoromethyl)-4,5-dihydro-2H-furo[2,3-g]indazole-7-carboxamide], the half-maximal inhibitory concentration (IC50) is 4 nM.

For `Cc1c(C(=O)NC[C@@H]2COCCO2)oc2c1-c1nn(CC3(C)COC3)cc1CC2` [Example 94, N-[(2R)-1,4-dioxan-2-ylmethyl]-8-methyl-2-[(3-methyloxetan-3-yl)methyl]-4,5-dihydro-2H-furo[2,3-g]indazole-7-carboxamide], the IC50 was found to be 21 nM.

For `Cc1c(C(=O)NC[C@@H]2COCCO2)oc2c1-c1nn(C[C@H]3COCCO3)cc1[C@H](C(F)(F)F)C2` (single isomer, unassigned) [Example 265-1, (4R or 4S)-N-{[(2R)-1,4-dioxan-2-yl]methyl}-2-{[(2S)-1,4-dioxan-2-yl]methyl}-8-methyl-4-(trifluoromethyl)-4,5-dihydro-2H-furo[2,3-g]indazole-7-carboxamide], the IC50 came out at 185 nM.

Take `Cc1c(C(=O)NC[C@@H]2CCCO2)oc2c1-c1nn(Cc3ccc(C(=O)NC[C@@H]4CCCO4)nc3)cc1CC2` [Example 146, 8-methyl-N-[(2S)-tetrahydrofuran-2-ylmethyl]-2-[(6-{[(2S)-tetrahydrofuran-2-ylmethyl]carbamoyl}pyridin-3-yl)methyl]-4,5-dihydro-2H-furo[2,3-g]indazole-7-carboxamide]: the IC50 stood at 47 nM.

In the case of `Cc1ncccc1Cn1cc2c(n1)-c1c(oc(C(=O)NC[C@@H]3CCCO3)c1C)CC2` [Example 73, 8-methyl-2-[(2-methylpyridin-3-yl)methyl]-N-[(2S)-tetrahydrofuran-2-ylmethyl]-4,5-dihydro-2H-furo[2,3-g]indazole-7-carboxamide], the IC50 is 140 nM.

`Cc1ccc(Cn2cc3c(n2)-c2c(oc(C(=O)NC[C@@H]4CCCO4)c2C(F)(F)F)CC32CCC2)nc1` [Example 277, 2′-[(5-Methylpyridin-2-yl)methyl]-N-[(2S)-tetrahydrofuran-2-ylmethyl]-8′-(trifluormethyl)-2′,5′-dihydrospiro[cyclobutan-1,4′-furo[2,3-g]indazol]-7′-carboxamide]: the IC50 is 8 nM.

For the compound `O=C(NC[C@@H]1CCCO1)c1oc2c(c1C(F)(F)F)-c1nn(Cc3ccccn3)cc1CC2` [Example 115, 2-(pyridin-2-ylmethyl)-N-[(2S)-tetrahydrofuran-2-ylmethyl]-8-(trifluoromethyl)-4,5-dihydro-2H-furo[2,3-g]indazole-7-carboxamide], the IC50 came to 27 nM.

As to `O=C(NC[C@@H]1CCCO1)c1oc2c(c1C(F)(F)F)-c1nn(CC3CCN(CC4CC4)CC3)cc1CC2` [Example 307, 2-{[1-(cyclopropylmethyl)piperidin-4-yl]methyl}-N-{[(2S)-oxolan-2-yl]methyl}-8-(trifluoromethyl)-4,5-dihydro-2H-furo[2,3-g]indazole-7-carboxamide], the IC50 worked out at 62 nM.

As to `Cc1c(C(=O)NC[C@@H]2CCCO2)oc2c1-c1nn(CC3CN(C(=O)OCc4ccccc4)C3)cc1CC2` [Example 156, benzyl 3-[(8-methyl-7-{[(2S)-tetrahydrofuran-2-ylmethyl]carbamoyl}-4,5-dihydro-2H-furo[2,3-g]indazol-2-yl)methyl]azetidine-1-carboxylate], the 50% inhibitory concentration (IC50) came to 9 nM.

`Cc1ccc(Cn2cc3c(n2)-c2c(oc(C(=O)NC[C@@H]4CCCO4)c2C)CC32CC2)cn1` [Example 211]: the IC50 is 17 nM.

For `COCCNC(=O)c1oc2c(c1C)-c1nn(Cc3ccccn3)cc1CC2` [Example 29, N-(2-methoxyethyl)-8-methyl-2-(pyridin-2-ylmethyl)-4,5-dihydro-2H-furo[2,3-g]indazole-7-carboxamide], the IC50 worked out at 290 nM.

Regarding `CN1CCC(Cn2cc3c(n2)-c2c(oc(C(=O)NC[C@@H]4COCCO4)c2C(F)(F)F)CC3)CC1` [Example 309, N-{[(2R)-1,4-dioxan-2-yl]methyl}-2-[(1-methylpiperidin-4-yl)methyl]-8-(trifluoromethyl)-4,5-dihydro-2H-furo[2,3-g]indazole-7-carboxamide], the IC50 amounted to 154 nM.
